Results published in patent publication US20210122730A1, “GLUCOCORTICOID RECEPTOR MODULATORS” (ORIC Pharmaceuticals, Inc., priority 2017, published 2021).
pIC50: −log10 of the molar value.

Experiments:
[1] = biological target: T1, CYP2C8 (Homo sapiens, UniProt P10632); experiment: CYP Inhibition Assay (CYP2C8, human liver microsomes, paclitaxel substrate); type: in vitro ADME; details: pH 7.4; pooled human liver microsomes 0.1 mg/mL, probe substrate paclitaxel
T1 construct: Pooled human microsomes were obtained from Sekisui XenoTech, KS; tissue Sekisui XenoTech, KS; host or cells: pooled human liver microsomes
T1 sequence (P10632 1-490): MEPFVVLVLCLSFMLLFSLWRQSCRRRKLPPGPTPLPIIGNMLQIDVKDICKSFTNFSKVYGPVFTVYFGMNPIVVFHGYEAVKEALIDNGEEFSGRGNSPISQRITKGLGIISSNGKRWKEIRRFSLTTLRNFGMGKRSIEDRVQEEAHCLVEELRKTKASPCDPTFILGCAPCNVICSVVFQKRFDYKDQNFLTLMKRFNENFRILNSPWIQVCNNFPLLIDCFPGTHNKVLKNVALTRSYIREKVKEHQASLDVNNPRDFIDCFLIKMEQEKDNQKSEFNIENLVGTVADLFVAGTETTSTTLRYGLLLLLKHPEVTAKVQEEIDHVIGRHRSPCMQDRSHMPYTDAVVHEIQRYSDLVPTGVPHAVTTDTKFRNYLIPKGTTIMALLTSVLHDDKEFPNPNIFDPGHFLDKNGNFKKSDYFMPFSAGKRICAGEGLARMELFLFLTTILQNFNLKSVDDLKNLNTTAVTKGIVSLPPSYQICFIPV
How it was run: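 Pooled human liver microsomes (0.1 mg/mL) in 50 mM potassium phosphate pH 7.4 with compound, started with 1 mM NADPH, 5 min at 37° C, duplicate.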

[2] = biological target: T2, GR (Homo sapiens, UniProt P04150); experiment: In Vitro GR Luciferase Reporter Assay (antagonist mode, CHO-K1-GR-MMTV-Luc reporter cells); type: cell-based; details: antagonist mode, 10 nM Dexamethasone
T2 construct: expressed in transfected cells; host or cells: CHO-K1
T2 sequence (P04150 1-777): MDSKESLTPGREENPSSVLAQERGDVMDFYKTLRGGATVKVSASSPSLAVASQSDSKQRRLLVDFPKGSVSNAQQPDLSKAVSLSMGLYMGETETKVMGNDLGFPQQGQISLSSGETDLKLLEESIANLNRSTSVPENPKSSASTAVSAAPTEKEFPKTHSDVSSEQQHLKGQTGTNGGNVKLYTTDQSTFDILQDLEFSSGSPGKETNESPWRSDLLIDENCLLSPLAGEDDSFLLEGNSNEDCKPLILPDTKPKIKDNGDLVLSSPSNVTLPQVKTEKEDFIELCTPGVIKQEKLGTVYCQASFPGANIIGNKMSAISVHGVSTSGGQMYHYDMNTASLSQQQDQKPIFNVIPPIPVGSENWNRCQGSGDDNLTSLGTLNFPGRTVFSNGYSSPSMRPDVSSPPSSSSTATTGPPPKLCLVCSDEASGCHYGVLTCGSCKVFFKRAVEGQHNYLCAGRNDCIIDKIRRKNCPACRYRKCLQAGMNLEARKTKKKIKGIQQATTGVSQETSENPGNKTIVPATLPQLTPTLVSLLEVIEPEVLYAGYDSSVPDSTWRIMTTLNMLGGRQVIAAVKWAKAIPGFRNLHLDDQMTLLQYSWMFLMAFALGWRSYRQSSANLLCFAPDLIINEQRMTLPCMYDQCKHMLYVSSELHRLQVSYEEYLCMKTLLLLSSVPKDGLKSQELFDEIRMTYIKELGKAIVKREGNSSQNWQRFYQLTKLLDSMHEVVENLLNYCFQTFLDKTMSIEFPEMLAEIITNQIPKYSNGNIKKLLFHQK
How it was run: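 CHO-K1-GR-MMTV-Luc cells in phenol red-free DMEM with 10% CSS, stimulated with 10 nM dexamethasone (final) and treated with 8-point 1:5 compound dilutions for about 18-24 h at 37° C. Luciferase measured by OneGlo luminescence; IC50 derived for inhibition of GR activity.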

| Structure (SMILES) | inhibition at 5 min [1] [%] | pIC50 [2] |
| --- | --- | --- |
| Cn1ccc(S(=O)(=O)N(C2CCC2)[C@H]2CCC3=Cc4c(cnn4-c4ccc(F)cc4)C[C@]3(C(=O)c3ncc(C(F)(F)F)s3)C2)n1 [Example 203, N-cyclobutyl-N-((4aS,6S)-1-(4-fluorophenyl)-4a-(5 (trifluoromethyl)thiazole-2-carbonyl)-4,4a,5,6,7,8-hexahydro-1H-benzo[f]indazol-6-yl)-1-methyl-1H-pyrazole-3-sulfonamide] | 25 to 50 | ≥ 7.00 |
| O=C(c1cc(C(F)(F)F)ccn1)[C@]12Cc3cnn(-c4ccc(F)cc4)c3C=C1CC[C@H](N(C1COC1)S(=O)(=O)c1ccc(F)cc1)C2 [Example 204, 4-fluoro-N-((4aS,6S)-1-(4-fluorophenyl)-4a-(4-(trifluoromethyl)picolinoyl)-4,4a,5,6,7,8-hexahydro-1H-benzo[f]indazol-6-yl)-N-(oxetan-3-yl)benzenesulfonamide] | 25 to 50 | ≥ 7.00 |
| Cn1ccc(S(=O)(=O)N(C2CCC2)[C@H]2CCC3=Cc4c(cnn4-c4ccc(F)cc4)C[C@]3(C(=O)c3cc(C(F)(F)F)ccn3)C2)n1 [Example 206, N-cyclobutyl-N-((4aS,6S)-1-(4-fluorophenyl)-4a-(4-(trifluoromethyl)picolinoyl)-4,4a,5,6,7,8-hexahydro-1H-benzo[f]indazol-6-yl)-1-methyl-1H-pyrazole-3-sulfonamide] | 25 to 50 | ≥ 7.00 |
| CC(C)N([C@H]1CCC2=Cc3c(cnn3-c3ccc(F)cc3)C[C@]2(C(=O)c2cc(C(F)(F)F)ccn2)C1)S(=O)(=O)c1ccc(F)cc1 [Example 210, 4-fluoro-N-((4aS,6S)-1-(4-fluorophenyl)-4a-(4-(trifluoromethyl)picolinoyl)-4,4a,5,6,7,8-hexahydro-1H-benzo[f]indazol-6-yl)-N-isopropylbenzenesulfonamide] | 75 to 90 | ≥ 7.00 |
| CC(C)CN([C@H]1CCC2=Cc3c(cnn3-c3ccc(F)cc3)C[C@]2(C(=O)c2ncc(C(F)(F)F)s2)C1)S(=O)(=O)c1ccn(C)n1 [Example 212, N-((4aS,6S)-1-(4-fluorophenyl)-4a-(5-(trifluoromethyl)thiazole-2-carbonyl)-4,4a,5,6,7,8-hexahydro-1H-benzo[f]indazol-6-yl)-N-isobutyl-1-methyl-1H-pyrazole-3-sulfonamide] | 25 to 50 | ≥ 7.00 |
| CCN([C@H]1CCC2=Cc3c(cnn3-c3ccc(F)cc3)C[C@]2(C(=O)c2cc(C(F)(F)F)ccn2)C1)S(=O)(=O)c1cn(C)cn1 [Example 214, N-ethyl-N-((4aS,6S)-1-(4-fluorophenyl)-4a-(4-(trifluoromethyl)picolinoyl)-4,4a,5,6,7,8-hexahydro-1H-benzo[f]indazol-6-yl)-1-methyl-1H-imidazole-4-sulfonamide] | ≤ 25 | ≥ 7.00 |
| CC(C)CN([C@H]1CCC2=Cc3c(cnn3-c3ccc(F)cc3)C[C@]2(C(=O)c2cc(C(F)(F)F)ccn2)C1)S(=O)(=O)c1ccn(C)n1 [Example 215, N-((4aS,6S)-1-(4-fluorophenyl)-4a-(4-(trifluoromethyl)picolinoyl)-4,4a,5,6,7,8-hexahydro-1H-benzo[f]indazol-6-yl)-N-isobutyl-1-methyl-1H-pyrazole-3-sulfonamide] | 50 to 75 | ≥ 7.00 |
| CCN([C@H]1CCC2=Cc3c(cnn3-c3ccc(F)cc3)C[C@]2(C(=O)c2ncc(C(F)(F)F)s2)C1)S(=O)(=O)c1cn(C)cn1 [Example 216, N-ethyl-N-((4aS,6S)-1-(4-fluorophenyl)-4a-(5-(trifluoromethyl)thiazole-2-carbonyl)-4,4a,5,6,7,8-hexahydro-1H-benzo[f]indazol-6-yl)-1-methyl-1H-imidazole-4-sulfonamide] | 25 to 50 | ≥ 7.00 |
| Cn1cnc(S(=O)(=O)N(CC2CC2)[C@H]2CCC3=Cc4c(cnn4-c4ccc(F)cc4)C[C@]3(C(=O)c3ncc(C(F)(F)F)s3)C2)c1 [Example 217, N-(cyclopropylmethyl)-N-((4aS,6S)-1-(4-fluorophenyl)-4a-(5-(trifluoromethyl)thiazole-2-carbonyl)-4,4a,5,6,7,8-hexahydro-1H-benzo[f]indazol-6-yl)-1-methyl-1H-imidazole-4-sulfonamide] | 25 to 50 | ≥ 7.00 |

Further lines, results first:

| inhibition at 5 min [1] [%] | pIC50 [2] | Structure (SMILES) |
| --- | --- | --- |
| 25 to 50 | ≥ 7.00 | Cn1ccc(S(=O)(=O)N(CC(C)(C)O)[C@H]2CCC3=Cc4c(cnn4-c4ccc(F)cc4)C[C@]3(C(=O)c3cc(C(F)(F)F)ccn3)C2)n1 [Example 195, N-((4aS,6S)-1-(4-fluorophenyl)-4a-(4-(trifluoromethyl)picolinoyl)-4,4a,5,6,7,8-hexahydro-1H-benzo[f]indazol-6-yl)-N-(2-hydroxy-2-methylpropyl)-1-methyl-1H-pyrazole-3-sulfonamide] |
| 50 to 75 | ≥ 7.00 | Cn1ccc(S(=O)(=O)N(C2COC2)[C@H]2CCC3=Cc4c(cnn4-c4ccc(F)cc4)C[C@]3(C(=O)c3ncc(C(F)(F)F)s3)C2)n1 [Example 196, N-((4aS,6S)-1-(4-fluorophenyl)-4a-(5-(trifluoromethyl)thiazole-2-carbonyl)-4,4a,5,6,7,8-hexahydro-1H-benzo[f]indazol-6-yl)-1-methyl-N-(oxetan-3-yl)-1H-pyrazole-3-sulfonamide] |
| 25 to 50 | ≥ 7.00 | Cn1ccc(S(=O)(=O)N(C2COC2)[C@H]2CCC3=Cc4c(cnn4-c4ccc(F)cc4)C[C@]3(C(=O)c3cc(C(F)(F)F)ccn3)C2)n1 [Example 198, N-((4aS,6S)-1-(4-fluorophenyl)-4a-(4-(trifluoromethyl)picolinoyl)-4,4a,5,6,7,8-hexahydro-1H-benzo[f]indazol-6-yl)-1-methyl-N-(oxetan-3-yl)-1H-pyrazole-3-sulfonamide] |
| 75 to 90 | ≥ 7.00 | CCN([C@H]1CCC2=Cc3c(cnn3-c3ccc(F)cc3)C[C@]2(C(=O)c2ncc(C(F)(F)F)s2)C1)S(=O)(=O)c1ccn(C)n1 [Example 199, N-ethyl-N-((4aS,6S)-1-(4-fluorophenyl)-4a-(5-(trifluoromethyl)thiazole-2-carbonyl)-4,4a,5,6,7,8-hexahydro-1H-benzo[f]indazol-6-yl)-1-methyl-1H-pyrazole-3-sulfonamide] |
| ≤ 25 | ≥ 7.00 | Cn1cnc(S(=O)(=O)N(C2CC2)[C@H]2CCC3=Cc4c(cnn4-c4ccc(F)cc4)C[C@]3(C(=O)c3ncc(C(F)(F)F)s3)C2)c1 [Example 201, N-cyclopropyl-N-((4aS,6S)-1-(4-fluorophenyl)-4a-(5 (trifluoromethyl)thiazole-2-carbonyl)-4,4a,5,6,7,8-hexahydro-1H-benzo[f]indazol-6-yl)-1-methyl-1H-imidazole-4-sulfonamide] |
| 25 to 50 | ≥ 7.00 | Cn1cc(S(=O)(=O)[C@@]2(F)CCC3=Cc4c(cnn4-c4ccc(F)cc4)C[C@]3(C(=O)c3cc(C(F)(F)F)ccn3)C2)cn1 [Example 202, ((4aS,6S)-6-fluoro-1-(4-fluorophenyl)-6-((1-methyl-1H-pyrazol-4-yl)sulfonyl)-1,4,5,6,7,8-hexahydro-4aH-benzo[f]indazol-4a-yl)(4-(trifluoromethyl)pyridin-2-yl)methanone] |
